{"source": "paper doi:10.1101/2025.01.28.635346v1", "about": "(bioRxiv, 2025)", "key": {"integrin αvβ8": {"target": "integrin αvβ8 (Homo sapiens, UniProt P06756+P26012)", "assay": "ELISA competition assay, integrin αvβ8 binding to LAP"}, "integrin α8β1": {"target": "integrin α8β1 (Homo sapiens, UniProt P05556+P53708)", "assay": "ELISA competition assay, integrin α8β1", "type": "binding"}, "[1]": {"assay": "Pharmacokinetics in female Balb/c mice", "type": "in vivo, mouse"}, "[2]": {"settings": "Table S3B, IP 30 mg/kg, mouse, animal 2F001"}, "[3]": {"settings": "Table S3B, IP 30 mg/kg, mouse, animal 2F002"}, "[4]": {"settings": "Table S3B, IP 30 mg/kg, mouse, animal 2F003"}, "[5]": {"settings": "Table S3B, IP 30 mg/kg, mouse, animal 2F004"}, "[6]": {"settings": "Table S3B, IP 30 mg/kg, mouse, animal 2F005"}, "[7]": {"settings": "Table S3B: IP 30 mg/kg, Mean N=5"}, "[8]": {"settings": "Table S3D, IP 10 mg/kg, mouse, animal 1F001"}, "[9]": {"settings": "Table S3D, IP 10 mg/kg, mouse, animal 1F002"}, "[10]": {"settings": "Table S3D, IP 10 mg/kg, mouse, animal 1F003"}, "[11]": {"settings": "Table S3D, IP 10 mg/kg, mouse, animal 1F004"}, "[12]": {"settings": "Table S3D, IP 10 mg/kg, mouse, animal 1F005"}}, "note": "Bridge positions count the residues as written; N and C are the ends. Side chains are listed from the residue outwards. Peptide text beside a SMILES is read from it. * marks the point of attachment. Butanoyl(4-(4-I-phenyl)) = O=C(CCCc1ccc(I)cc1)*; PEG2 = NCCOCCOCCC(=O)O", "data": [{"smiles": "CC[C@H](C)[C@H](NC(=O)[C@H](CC(C)C)NC(=O)[C@H](CC(=O)O)NC(=O)CNC(=O)[C@H](CCCNC(=N)N)NC(=O)[C@@H](NC(=O)[C@H](Cc1ccccc1)NC(=O)[C@H](Cc1ccc(O)cc1)NC(=O)[C@@H]1CCC(=O)NCC(=O)NCC(=O)N[C@@H](CCCNC(=N)N)C(=O)NCC(=O)N[C@@H](Cc2c[nH]cn2)C(=O)N[C@@H](C(C)C)C(=O)N2CCC[C@H]2C(=O)N1)C(C)C)C(=O)N[C@@H](CO)C(=O)N[C@@H](Cc1ccccc1)C(=O)N[C@@H](Cc1ccc(O)cc1)C(=O)N[C@@H](CCCCNC(=O)CCOCCOCCNC(=O)CCCc1ccc(I)cc1)C(=O)O", "note": "[lassotide 47] (GGRGHVPEYFVRGDLISFYK([PEG2-Butanoyl(4-(4-I-phenyl))])-OH; lactam N-8)", "values": [{"measurement": "IC50", "setting": "integrin αvβ8", "value": 7.9, "unit": "nM"}, {"measurement": "IC50", "setting": "integrin α8β1", "value": "> 10000", "unit": "nM"}, {"measurement": "improvement in t1/2 vs 36", "setting": "[1]; 30 mg/kg IP, mice", "value": 9, "unit": "fold"}, {"measurement": "increase in AUC vs 36", "setting": "[1]; 30 mg/kg IP, mice", "value": 39, "unit": "fold"}, {"measurement": "Cl", "setting": "[1]; Mouse, 30 mg/kg IP, mean", "value": 0.3, "unit": "mL/min/kg"}, {"measurement": "Vz", "setting": "[1]; Mouse, 30 mg/kg IP, mean", "value": 0.1, "unit": "L/kg"}, {"measurement": "AUClast", "setting": "[1]; [2]", "value": 1750000}, {"measurement": "CL/F", "setting": "[1]; [2]", "value": 0.271}, {"measurement": "Cmax", "setting": "[1]; [2]", "value": 167000}, {"measurement": "Tmax", "setting": "[1]; [2]", "value": 2.0}, {"measurement": "Vz/F", "setting": "[1]; [2]", "value": 118}, {"measurement": "t1/2", "setting": "[1]; [2]", "value": 5.0}, {"measurement": "AUClast", "setting": "[1]; [3]", "value": 1710000}, {"measurement": "CL/F", "setting": "[1]; [3]", "value": 0.278}, {"measurement": "Cmax", "setting": "[1]; [3]", "value": 182000}, {"measurement": "Tmax", "setting": "[1]; [3]", "value": 2.0}, {"measurement": "Vz/F", "setting": "[1]; [3]", "value": 128}, {"measurement": "t1/2", "setting": "[1]; [3]", "value": 5.3}, {"measurement": "AUClast", "setting": "[1]; [4]", "value": 1270000}, {"measurement": "CL/F", "setting": "[1]; [4]", "value": 0.356}, {"measurement": "Cmax", "setting": "[1]; [4]", "value": 96500}, {"measurement": "Tmax", "setting": "[1]; [4]", "value": 4.0}, {"measurement": "Vz/F", "setting": "[1]; [4]", "value": 215}, {"measurement": "t1/2", "setting": "[1]; [4]", "value": 7.0}, {"measurement": "AUClast", "setting": "[1]; [5]", "value": 1810000}, {"measurement": "CL/F", "setting": "[1]; [5]", "value": 0.266}, {"measurement": "Cmax", "setting": "[1]; [5]", "value": 151000}, {"measurement": "Tmax", "setting": "[1]; [5]", "value": 2.0}, {"measurement": "Vz/F", "setting": "[1]; [5]", "value": 109}, {"measurement": "t1/2", "setting": "[1]; [5]", "value": 4.7}, {"measurement": "AUClast", "setting": "[1]; [6]", "value": 2150000}, {"measurement": "CL/F", "setting": "[1]; [6]", "value": 0.219}, {"measurement": "Cmax", "setting": "[1]; [6]", "value": 231000}, {"measurement": "Tmax", "setting": "[1]; [6]", "value": 4.0}, {"measurement": "Vz/F", "setting": "[1]; [6]", "value": 105}, {"measurement": "t1/2", "setting": "[1]; [6]", "value": 5.5}, {"measurement": "Vz/F", "setting": "[1]; [7]", "value": 135}, {"measurement": "t1/2", "setting": "[1]; [7]", "value": 5.52, "unit": "h"}, {"measurement": "AUCINF", "setting": "[1]; [8]", "value": 531, "unit": "µg·h/mL"}, {"measurement": "AUClast", "setting": "[1]; [8]", "value": 517000, "unit": "ng·h/mL"}, {"measurement": "CL/F", "setting": "[1]; [8]", "value": 0.314, "unit": "mL/min/kg"}, {"measurement": "Cmax", "setting": "[1]; [8]", "value": 74800, "unit": "ng/mL"}, {"measurement": "Tmax", "setting": "[1]; [8]", "value": 2.0, "unit": "h"}, {"measurement": "Vz/F", "setting": "[1]; [8]", "value": 122, "unit": "mL/kg"}, {"measurement": "t1/2", "setting": "[1]; [8]", "value": 4.5, "unit": "h"}, {"measurement": "AUCINF", "setting": "[1]; [9]", "value": 482, "unit": "µg·h/mL"}, {"measurement": "AUClast", "setting": "[1]; [9]", "value": 468000, "unit": "ng·h/mL"}, {"measurement": "CL/F", "setting": "[1]; [9]", "value": 0.346, "unit": "mL/min/kg"}, {"measurement": "Cmax", "setting": "[1]; [9]", "value": 75600, "unit": "ng/mL"}, {"measurement": "Tmax", "setting": "[1]; [9]", "value": 2.0, "unit": "h"}, {"measurement": "Vz/F", "setting": "[1]; [9]", "value": 128, "unit": "mL/kg"}, {"measurement": "t1/2", "setting": "[1]; [9]", "value": 4.3, "unit": "h"}, {"measurement": "AUCINF", "setting": "[1]; [10]", "value": 604, "unit": "µg·h/mL"}, {"measurement": "AUClast", "setting": "[1]; [10]", "value": 587000, "unit": "ng·h/mL"}, {"measurement": "CL/F", "setting": "[1]; [10]", "value": 0.276, "unit": "mL/min/kg"}, {"measurement": "Cmax", "setting": "[1]; [10]", "value": 57500, "unit": "ng/mL"}, {"measurement": "Tmax", "setting": "[1]; [10]", "value": 2.0, "unit": "h"}, {"measurement": "Vz/F", "setting": "[1]; [10]", "value": 108, "unit": "mL/kg"}, {"measurement": "t1/2", "setting": "[1]; [10]", "value": 4.5, "unit": "h"}, {"measurement": "AUCINF", "setting": "[1]; [11]", "value": 628, "unit": "µg·h/mL"}, {"measurement": "AUClast", "setting": "[1]; [11]", "value": 603000, "unit": "ng·h/mL"}, {"measurement": "CL/F", "setting": "[1]; [11]", "value": 0.265, "unit": "mL/min/kg"}, {"measurement": "Cmax", "setting": "[1]; [11]", "value": 56300, "unit": "ng/mL"}, {"measurement": "Tmax", "setting": "[1]; [11]", "value": 2.0, "unit": "h"}, {"measurement": "Vz/F", "setting": "[1]; [11]", "value": 112, "unit": "mL/kg"}, {"measurement": "t1/2", "setting": "[1]; [11]", "value": 4.9, "unit": "h"}, {"measurement": "AUCINF", "setting": "[1]; [12]", "value": 640, "unit": "µg·h/mL"}, {"measurement": "AUClast", "setting": "[1]; [12]", "value": 631000, "unit": "ng·h/mL"}, {"measurement": "CL/F", "setting": "[1]; [12]", "value": 0.260, "unit": "mL/min/kg"}, {"measurement": "Cmax", "setting": "[1]; [12]", "value": 68400, "unit": "ng/mL"}]}]}
